Experimental data published in patent publication US5663186A, “Treatment of atherosclerosis with angiotensin II receptor blocking imidazoles” (Merck & Co., Inc., priority 1995, dated 1997).
Counter-ions that a name gives are not always drawn.

Key:
Renal Hypertensives Rats = test: Antihypertensive effects in renal hypertensive rats (left renal artery ligation); type: in vivo, rat
Procedure: This procedure increases blood pressure by increasing renin production with consequent elevation of AII levels. Compounds are administered orally at 100 mg/kg and/or intravenously via a cannula in the jugular vein at 10 mg/kg. Arterial blood pressure is continuously measured directly through a carotid artery cannula and recorded using a pressure transducer and a polygraph. Blood pressure levels after treatment are compared to pretreatment levels to determine the antihypertensive effects of the compounds (See Table 1).
Compound listed in Table 2 was tested in the same manner as described for Table 1, except that in the test for antihypertensive effects in renal hypertensive rats, the compounds were administered orally at 30 mg/kg and intravenously at 3 mg/kg.

dogs = conditions: cited from earlier work
AII = conditions: cited from earlier work
conscious dogs = test: Hypotensive effects and inhibition of AII pressor response before and after furosemide in conscious dogs; type: in vivo, dog

Structure (SMILES): CCCCc1nc(Cl)c(C(=O)O)n1Cc1ccc(-c2ccccc2-c2nnn[nH]2)cc1 [Compound 2, 2-n-butyl-4-chloro-1-[(2'-(tetrazol-5-yl)-1,1'-biphenyl-4-yl)-methyl]-1H-imidazole-5-carboxylic acid]
- Antihypertensive Effects in Renal Hypertensives Rats, Intravenous Activity (Renal Hypertensives Rats; intravenous, 3.0 mg/kg or less): + (Significant decrease in blood pressure at 3.0 mg/kg or less)
- Antihypertensive Effects in Renal Hypertensives Rats, Oral Activity (Renal Hypertensives Rats; oral, 30 mg/kg or less): + (Significant decrease in blood pressure at 30 mg/kg or less)

Structure (SMILES): CNCC(=O)N[C@@H](CCCN=C(N)N)C(=O)N[C@H](C(=O)N[C@@H](Cc1ccc(O)cc1)C(=O)N[C@H](C(=O)N[C@@H](Cc1cnc[nH]1)C(=O)N1CCC[C@H]1C(=O)N[C@@H](C)C(=O)O)C(C)C)C(C)C [Saralasin, [Sar^1, Ala^8] AII]
- effect on renal vasoconstrictor effect of indomethacin and meclofenamate (dogs; dogs): inhibit the renal vasoconstrictor effect of indomethacin and meclofenamate
- lowering of arterial pressure (AII; mammals and man, when the (elevated) pressure is dependent on circulating AII): lower arterial pressure in mammals and man
- oral effectiveness (AII; oral doses): oral doses being ineffective
- duration of pharmacological effects (AII; parenteral administration): relatively short-lasting
- antagonism of the actions of AII (AII; pithed rats): one of the most potent competitive antagonists of the actions of AII
- agonistic (pressor) effects (AII; when the pressure is not sustained by AII): generally elicits pressor effects when the pressure is not sustained by AII

Structure (SMILES): CCCCc1nc(Cl)c(CO)n1Cc1ccc(-c2ccccc2-c2nnn[nH]2)cc1 [2-butyl-4-chloro-1-[2'-(1H-tetrazol-5-yl)biphenyl-4-yl)methyl]-5-hydroxymethylimidazole sodium salt]
- inhibition of pressor response to AII after furosemide (conscious dogs; furosemide-treated dogs, cumulative iv): inhibited the pressor response to AII at the two higher doses
- decrease in blood pressure after furosemide (conscious dogs; furosemide-treated dogs, cumulative iv 0.3 to 3 mg/kg): significant decrease in blood pressure in a dose-dependent manner
- blood pressure lowering (conscious dogs; normotensive conscious dogs (n=4), cumulative iv 0.3 to 3 mg/kg, before furosemide): did not lower blood pressure
- inhibition of pressor response to AII (conscious dogs; normotensive conscious dogs, cumulative iv 0.3 to 3 mg/kg, AII 0.1 μg/kg iv, 10 min post dose, before furosemide): effective in inhibiting the pressor response to AII

Structure (SMILES): C[C@H](CS)C(=O)N1CCC[C@H]1C(=O)O [captopril]
- effect on renal vasoconstrictor effect of indomethacin (dogs; dogs with non-hypotensive hemorrhage): reverse the renal vasoconstrictor effect of indomethacin

Structure (SMILES): NS(=O)(=O)c1cc(C(=O)O)c(NCc2ccco2)cc1Cl [furosemide, reference compound]
- Plasma renin activity (PRA) (conscious dogs; dogs (three), furosemide 10 mg/kg im at 18 and 2 hours before, PRA four days earlier 1.5±0.5): 19.9±7.2 ng AI/ml/hr
